This is an account of results in ChEMBL document CHEMBL3232943, “SAR study on arylmethyloxyphenyl scaffold: looking for a P-gp nanomolar affinity” (Eur J Med Chem, 2014).

A word on the pEC50: it is the EC50 on a negative log10 scale, so that one unit is a factor of ten. By efflux ratio is commonly meant a quotient of directional permeabilities that is used to spot active efflux.

The structures appear in SMILES notation. pEC50: −log10 of the molar value.

Data set [1] has as its target T1, ATP-dependent translocase ABCB1 (Homo sapiens, UniProt P08183). Description: Inhibition of P-glycoprotein (unknown origin) expressed in MDCK cells assessed as reduction of calcein-AM transport after 30 mins by fluorescence assay. It counts as cell-based.
Data set [2] has as its target T1, ATP-dependent translocase ABCB1. Description: Activation of ATPase activity of MDR1 (unknown origin) expressed in MDCK cells assessed as reduction of reduction of ATP level at 100 uM after 2 hrs by luminescence/ATPlite assay. Type of data set: cell-based. On the set-up: scale not given: the % may be the effect or the level left. (In general: ATP-based viability assays read luminescence as a measure of living cells.)

Data set [3] is described as follows: Efflux ratio of permeability from basolateral to apical side over apical to basolateral side in human Caco2 cells at 100 uM after 30 mins by UV spectroscopy. Type of data set: ADME, cell-based. To be noted: Caco-2.
Data set [4] has as its target Multidrug resistance-associated protein 1 (Homo sapiens, UniProt P33527). Description: Modulation of MRP1 (unknown origin) expressed in MDCK cells at 100 uM. It counts as cell-based.
In another data set the test system is MDCK. The data set can be described thus: Cytotoxicity against MDR1 expressing MDCK cells assessed as cell viability at 1 uM after 24 hrs by MTT assay. It counts as ADME, cell-based, Canis lupus familiaris. To be noted: dog. (In general: Tetrazolium dyes change colour on reduction, which living cells bring about.)
Data set [5] is described as follows: Cytotoxicity against MDR1 expressing MDCK cells assessed as cell viability at 1 uM after 48 hrs by MTT assay. It counts as ADME, cell-based, Canis lupus familiaris. To be noted: dog, read-out: Activity.
Data set [6] is described as follows: Cytotoxicity against MDR1 expressing MDCK cells assessed as cell viability at 1 uM after 48 hrs by MTT assay in presence of MC18 P-gp inhibitor. Type of data set: ADME, cell-based, Canis lupus familiaris. To be noted: dog, with MC18 (P-gp inhibitor), concentration not stated, read-out: Activity.

Multidrug resistance-associated protein 1, sequence (P33527 whole entry): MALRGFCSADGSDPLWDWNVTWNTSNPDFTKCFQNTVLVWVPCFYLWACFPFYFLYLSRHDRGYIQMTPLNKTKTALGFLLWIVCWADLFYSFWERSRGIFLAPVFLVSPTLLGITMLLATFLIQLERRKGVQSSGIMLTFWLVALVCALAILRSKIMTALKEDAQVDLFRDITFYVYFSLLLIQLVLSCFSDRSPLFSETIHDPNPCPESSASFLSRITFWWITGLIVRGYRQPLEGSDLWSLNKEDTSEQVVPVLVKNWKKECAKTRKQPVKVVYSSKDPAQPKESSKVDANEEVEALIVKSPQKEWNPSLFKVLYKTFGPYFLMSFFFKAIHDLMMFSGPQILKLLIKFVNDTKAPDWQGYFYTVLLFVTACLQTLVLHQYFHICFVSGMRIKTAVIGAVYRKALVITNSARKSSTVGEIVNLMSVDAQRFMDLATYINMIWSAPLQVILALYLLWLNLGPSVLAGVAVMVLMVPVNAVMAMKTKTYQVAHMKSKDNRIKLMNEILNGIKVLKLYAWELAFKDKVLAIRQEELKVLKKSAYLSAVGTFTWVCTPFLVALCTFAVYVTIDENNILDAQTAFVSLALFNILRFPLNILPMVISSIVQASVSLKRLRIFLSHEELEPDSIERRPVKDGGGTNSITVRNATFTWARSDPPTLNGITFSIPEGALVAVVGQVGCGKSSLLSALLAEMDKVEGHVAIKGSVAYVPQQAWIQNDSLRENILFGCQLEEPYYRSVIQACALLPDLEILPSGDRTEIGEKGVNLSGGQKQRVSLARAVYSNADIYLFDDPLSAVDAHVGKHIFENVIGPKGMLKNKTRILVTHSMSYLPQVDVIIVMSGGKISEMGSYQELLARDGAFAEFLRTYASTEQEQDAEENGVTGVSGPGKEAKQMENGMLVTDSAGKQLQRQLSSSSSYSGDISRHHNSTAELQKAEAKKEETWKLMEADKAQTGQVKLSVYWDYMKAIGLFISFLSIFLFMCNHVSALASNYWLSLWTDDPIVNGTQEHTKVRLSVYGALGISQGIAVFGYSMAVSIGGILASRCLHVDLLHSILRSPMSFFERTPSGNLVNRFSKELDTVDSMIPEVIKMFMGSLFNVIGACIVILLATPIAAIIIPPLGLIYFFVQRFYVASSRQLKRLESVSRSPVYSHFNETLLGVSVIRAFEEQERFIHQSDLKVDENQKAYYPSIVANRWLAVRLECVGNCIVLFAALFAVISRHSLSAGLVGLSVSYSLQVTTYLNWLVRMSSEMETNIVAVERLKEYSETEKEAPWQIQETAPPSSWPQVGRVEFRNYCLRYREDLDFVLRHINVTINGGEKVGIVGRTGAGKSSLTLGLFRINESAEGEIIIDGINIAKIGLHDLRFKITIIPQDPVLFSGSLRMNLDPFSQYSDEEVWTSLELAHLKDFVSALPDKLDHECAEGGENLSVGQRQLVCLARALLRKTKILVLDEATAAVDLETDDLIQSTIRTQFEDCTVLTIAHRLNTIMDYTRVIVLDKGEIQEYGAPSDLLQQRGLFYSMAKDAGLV
T1 sequence (P08183 whole entry): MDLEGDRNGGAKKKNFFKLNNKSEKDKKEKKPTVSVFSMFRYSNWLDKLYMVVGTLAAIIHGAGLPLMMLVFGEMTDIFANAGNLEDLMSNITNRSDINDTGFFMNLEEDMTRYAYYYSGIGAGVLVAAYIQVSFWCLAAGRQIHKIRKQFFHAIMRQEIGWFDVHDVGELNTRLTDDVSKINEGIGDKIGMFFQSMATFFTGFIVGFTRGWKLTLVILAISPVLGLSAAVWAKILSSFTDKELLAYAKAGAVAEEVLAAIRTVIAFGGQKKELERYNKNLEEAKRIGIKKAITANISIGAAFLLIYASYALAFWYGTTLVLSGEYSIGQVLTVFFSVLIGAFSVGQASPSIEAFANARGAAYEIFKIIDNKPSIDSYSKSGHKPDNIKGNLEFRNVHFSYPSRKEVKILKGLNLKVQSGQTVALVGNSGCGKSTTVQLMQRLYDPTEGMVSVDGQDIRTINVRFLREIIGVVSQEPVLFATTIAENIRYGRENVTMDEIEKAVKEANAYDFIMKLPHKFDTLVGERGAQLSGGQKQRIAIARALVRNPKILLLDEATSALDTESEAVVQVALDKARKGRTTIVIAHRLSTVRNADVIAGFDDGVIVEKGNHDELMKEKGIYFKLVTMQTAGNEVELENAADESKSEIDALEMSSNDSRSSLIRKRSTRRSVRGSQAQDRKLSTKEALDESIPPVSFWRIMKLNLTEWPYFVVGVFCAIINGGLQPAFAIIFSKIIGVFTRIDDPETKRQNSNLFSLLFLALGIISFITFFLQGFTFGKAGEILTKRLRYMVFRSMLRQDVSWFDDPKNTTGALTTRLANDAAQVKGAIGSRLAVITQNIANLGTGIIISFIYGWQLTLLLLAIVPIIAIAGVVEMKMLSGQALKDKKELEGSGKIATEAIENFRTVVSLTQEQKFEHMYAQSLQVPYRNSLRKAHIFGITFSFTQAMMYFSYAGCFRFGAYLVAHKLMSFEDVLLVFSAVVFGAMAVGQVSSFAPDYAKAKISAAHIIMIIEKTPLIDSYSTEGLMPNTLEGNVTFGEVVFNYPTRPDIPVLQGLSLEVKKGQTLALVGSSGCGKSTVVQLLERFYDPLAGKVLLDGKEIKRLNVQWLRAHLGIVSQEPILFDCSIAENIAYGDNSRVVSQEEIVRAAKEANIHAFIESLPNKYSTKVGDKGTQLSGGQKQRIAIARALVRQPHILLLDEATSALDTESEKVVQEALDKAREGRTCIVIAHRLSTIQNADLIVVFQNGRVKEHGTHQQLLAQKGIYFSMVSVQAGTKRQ

In the case of `COc1cccc(CCc2ccccc2OCc2cc(OC)c(OC)c(OC)c2)c1OC`, the negative-log EC50 (pEC50) in data set [1] is 6.52. The Activity entry in data set [2] was “Active”; in data set [4], “Not Active”. Also, the efflux ratio at 0.5 h, 100 µM in data set [3] was found to be 3.23.
In the same order, the values of `COc1cccc(CCc2ccccc2NC(=O)c2cccc(OC)c2)c1` are 4.96, “Active”, “Not Active” and 4.1.
For `COc1cc(CCc2ccccc2OCc2cc(OC)c(OC)c(OC)c2)cc(OC)c1OC`, the negative-log EC50 (pEC50) in data set [1] is 8.15. For the same compound, the Activity entry in data set [2] is reported as “Active”; with MDCK it was “Non-toxic”; in data set [4], “Not Active”. In data set [3], the efflux ratio at 0.5 h, 100 µM worked out at 3.96. The viability at 48 h, 1 µM is 40% in data set [5] and 63% in data set [6].
With `COc1cccc(CCc2ccccc2OCc2cccs2)c1`, the negative-log EC50 (pEC50) in data set [1] was under 4.00. The Activity result in data set [2] was “Active”; in data set [4], “Not Active”.
With `COc1ccc(COc2ccccc2CCc2cc(OC)c(OC)c(OC)c2)cc1OC`, the negative-log EC50 (pEC50) in data set [1] was 6.05. Moreover, the Activity result was “Active” in data set [2] and “Not Active” in data set [4]. In addition, in data set [3], the efflux ratio at 0.5 h, 100 µM was 3.8.
Regarding `COc1cccc(CCc2ccccc2OCc2cc(OC)c(OC)c(OC)c2)c1`, the pEC50 in data set [1] is 5.51. For the same compound, the Activity entry in data set [2] and in data set [4] was “Not Active” each time. Further, the efflux ratio at 0.5 h, 100 µM in data set [3] amounted to 3.14.
In the case of `COc1cccc(CCc2ccccc2NC(=O)c2cccnc2)c1`, in data set [1], the pEC50 is 4.36. The results for the Activity result in data set [2] and in data set [4] were “Active” and “Not Active”, respectively.
As to `COc1cc2c(cc1OC)CN(CCc1ccc(NC(=O)c3cc(OC)c(OC)cc3NC(=O)c3cnc4ccccc4c3)cc1)CC2` [TARIQUIDAR], in data set [2], the Activity is recorded as 30%. In data set [3], the efflux ratio at 0.5 h, 100 µM amounted to 22.
With `COc1ccc(CCc2ccccc2OCc2ccc(OC)c(OC)c2)cc1OC`, the negative logarithm of the EC50 (pEC50) in data set [1] was 5.68. The Activity entry in data set [2] and in data set [4] was “Not Active” throughout. Also, the efflux ratio at 0.5 h, 100 µM in data set [3] came out at 2.77.
As to `COc1cccc(CCc2ccccc2OCc2ccc3c(c2)OCO3)c1`, the negative logarithm of the EC50 (pEC50) in data set [1] is under 4.00. Further, the Activity entry is listed as “Active” in data set [2] and “Not Active” in data set [4].
In the case of `Clc1ccc(COc2ccccc2CCc2ccccc2)c(Cl)c1`, in data set [1], the negative-log EC50 (pEC50) is under 4.00. The Activity entry in data set [4] is “Not Active”.
`COc1cc(COc2ccccc2CCc2cc(OC)c(OC)c(OC)c2)cc(OC)c1`: the negative logarithm of the EC50 (pEC50) in data set [1] was 5.89. For the same compound, the Activity entry in data set [2] and in data set [4] was “Not Active” throughout.
`COc1cccc(CCc2ccccc2NCc2ccncc2)c1`: the negative-log EC50 (pEC50) in data set [1] is 4.94. The Activity entry in data set [2] is “Active”; in data set [4] it was “Not Active”. In addition, the efflux ratio at 0.5 h, 100 µM in data set [3] came to 3.
On the same counts, the results for `COc1cccc(CCc2ccccc2OCc2ncccn2)c1` are 4.49, “Active”, “Not Active” and 2.91.
In the same order, the values of `COc1cccc(COc2ccccc2CCc2cc(OC)c(OC)c(OC)c2)c1OC` are 5.49, “Active”, “Not Active” and 3.45.
